Structures can show the parent of a compound that is named as a salt. Where two headings read alike, the source gives them in different places.
Tests used:
[1] = tested on: AD-NNOP-APP neural organoids; assay: PF-3845 effect on gene expression in AD-NNOP-APP neural organoids (Ampliseq transcriptomics); type: cell-based, human
Procedure: Neural Organoids derived from induced pluripotent stem cells derived from adult skin cells of AD, ADRD or MED patients were grown in vitro for 4 weeks as previous described in U.S. Pat. No. 11,435,890, incorporated by reference in its entirety herein. Transcriptomic data from these neural organoids were obtained. Differences in expression of 20,814 genes expressed in the human genome were determined between these neural organoids and those from neural organoids from a normal individual human (an individual not having/diagnosed with AD, ADRD, or MED). Detailed data analysis using Gene Card and Pubmed data bases were performed. […] These genes comprise a suite of biomarkers for Alzheimer's disease.
(§1) Human induced pluripotent stem cell-derived neural organoids were generated according to the following protocol, as set forth in U.S. Pat. No. 11,435,890, incorporated by reference in its entirety herein. Briefly, irradiated murine embryonic fibroblasts (MEF) were plated on a gelatin coated substrate in MEF media (Dulbecco's Modified Eagle Medium (DMEM) supplemented with 10% Fetal Bovine Serum, 100 units/ml penicillin, 100 microgram/ml streptomycin, and 0.25 microgram/ml Fungizone) at a density of 2×10^5 cells per well. The seeded plate was incubated at 37° C. overnight.
It is known that FAAH inhibitor PF-3845 will raise endogenous levels of endocannabinoid anandamide receptor agonist anandamide. Consequently, PF-3845 treatment can increase endocannabinoid anandamide receptor activity despite dementia-associated downregulation. […] AD-NNOP-APP neural organoids were incubated with vehicle (0.1% DMSO; control) or PF-3845 dissolved in DMSO at 10 µM for 4 days and harvested for RNA extraction and gene expression analysis by Ampliseq™ (Thermofisher). Log2 fold change with a positive value indicates a […] in expression of an AD-NNOP gene when compared to Normal-NNOP and with a negative number an increase in gene expression. […] The expression of these genes were known to be increased in AD-NNOP-APP compared to normal (data not shown). Thus, PF-3845 or FAAH inhibitor was effective in reverting the biomarkers of AD to normalcy.

adenosine A2A receptor = settings: Zochi et al., 1996, cited from earlier work
[2] = cited from earlier work
[3] = tested on: AD-NNOP-SPOR neural organoids; assay: CGS-21680 effect on gene expression in AD-NNOP-SPOR neural organoids (Ampliseq transcriptomics); type: cell-based, human
Procedure: Neural Organoids derived from induced pluripotent stem cells derived from adult skin cells of AD, ADRD or MED patients were grown in vitro for 4 weeks as previous described in U.S. Pat. No. 11,435,890, incorporated by reference in its entirety herein. Transcriptomic data from these neural organoids were obtained. Differences in expression of 20,814 genes expressed in the human genome were determined between these neural organoids and those from neural organoids from a normal individual human (an individual not having/diagnosed with AD, ADRD, or MED). Detailed data analysis using Gene Card and Pubmed data bases were performed.
as §1
In Table 1, the effect of A2A receptor agonist to reverse the aberrant expression of the biomarkers in AD disease was assessed. […] Log2 fold change with a positive value indicates a […] in expression of an AD-NNOP gene when compared to Normal-NNOP and a negative number indicates an increase in gene expression.

[4] = AD-NNOP-APP >12 weeks in culture, PF-3845 10 µM 4 days vs vehicle (0.1% DMSO), positive = decrease in expression
[5] = AD-NNOP-SPOR, CGS-21680 1 μM 4 days vs vehicle

In the case of `O=C(Nc1cccnc1)N1CCC(Cc2cccc(Oc3ccc(C(F)(F)F)cn3)c2)CC1` [PF-3845], the “effect on expression of measured AD biomarker genes” value ([1]; AD-NNOP APP, PF-3845 compared to control treatment) is reported as “expression of the measured genes were decreased”, the “ADM log2 Fold Change” value [1, 4] is reported as 2.14 and the “BGN log2 Fold Change” value [1, 4] is reported as 2.50. For the same molecule, the “CD36 log2 Fold Change” value [1, 4] was 2.86, the “MAP3K19 log2 Fold Change” value [1, 4] was 2.56 and the “SLC16A3 log2 Fold Change” value [1, 4] was 2.05. For the same molecule, the “number of differentially expressed genes vs control group” value ([1]; AD-NNOP-APP, PF-3845 10 µM 4 days vs vehicle) was 2111 genes.

In the case of `CCNC(=O)[C@H]1O[C@@H](n2cnc3c(N)nc(NCCc4ccc(CCC(=O)O)cc4)nc32)[C@H](O)[C@@H]1O` [CGS-21680, 2-p-(2-Carboxyethyl) phenethylamino-5′-N-ethylcarboxamidoadenosine hydrochloride hydrate], the “solubility in 45% (w/v) aq 2-hydroxypropyl-β-cyclodextrin” value ([2]; 45% (w/v) aq 2-hydroxypropyl-β-cyclodextrin) is listed as ≤ 20 mg/mL, the “solubility in DMSO” value [2] is listed as “up to 3.4 mg/mL” and the “effect on TBX3 expression” value ([3]; AD-NNOP SPOR, compared to control treatment) is listed as “decreased TBX3 expression”. The “effect on expression of abnormal AD genes” value [3, 5] was “invert the expression of the abnormal genes in AD and revert them back to normalcy” and the “number of differentially expressed genes vs control group” value [3, 5] was 2023 genes.

For `CCNC(=O)[C@H]1O[C@@H](n2cnc3c(N)nc(C#CC[C@H]4CC[C@H](C(=O)OC)CC4)nc32)[C@H](O)[C@@H]1O` [apadenoson, methyl (1R,4r)-4-(3-(6-amino-9-((2R,3R,4S,5S)-5-(ethylcarbamoyl)-3,4-dihydroxytetrahydrofuran-2-yl)-9H-purin-2-yl)prop-2-yn-1-yl)cyclohexane-1-carboxylate], the “solubility in DMSO” value ([2]; MedKoo Biosciences) is given as “Soluble in DMSO”.

— patent US20260224602A1, “METHODS AND PHARMACEUTICAL COMPOSITIONS FOR TREATING DEMENTIA” (Neurxstem, priority 2023, published 2026)
